Read-outs that look alike come from different tables or passages of the source.
Legend:
[1] = CHMP Assessment Report; cited from earlier work
[2] = 900 mL 0.01 N HCl buffer, 50 rpm, sample compressed at 1.5 metric tons for 1 minute
Experimental: Intrinsic dissolution rate (IDR) measurements were performed using a Wood apparatus. Samples were prepared by compressing the sample at 1.5 metric tons for 1 minute. A dissolution medium consisting of 900 mL 0.01 N HCl buffer, and rotation speed of 50 rpm was used for each experiment.

[3] = 1 g sample, agitated in ball mill 2 hrs at 30 Hz, ambient relative humidity 60%
Experimental: Samples (1 g) were initially placed in a small glass dish inside a desiccator for 30 minutes. The initial electric field of each sample was then measured with a JCI 140 Static Monitor (John Chubb Instrumentation, England) wherein the height of the field meter from top of the glass dish was 2.5 cm. […] Each sample was then placed in a 20 mL plastic vial and agitated inside of a ball mill (Retsch Mixer Mill MM 301) for 2 hrs at 30 Hz. After the agitation period, each sample was returned to the glass dish and the electric field was measured. The ambient relative humidity during the experiments was 60%.

[4] = cited from earlier work; for Hygroscopicity: description in WO 2018/183354 A1, 4-methylbenzenesulfonate

Compound	Biopharmaceutics Classification System (BCS) class [1]	Intrinsic Dissolution Rate [2]	Electric Field After Agitation [3]	Hygroscopicity ([4]; listed as crystalline Form I)	Hygroscopicity [4]	Weight gain in DVS ([4]; up to 95% relative humidity (RH))
Cc1ccc(S(=O)(=O)O)cc1.NC(=O)c1cccc2cn(-c3ccc([C@@H]4CCCNC4)cc3)nc12 [Niraparib tosylate crystalline Form I, 2-{4-[(3S)-piperidin-3-yl]phenyl}-2H-indazole 7-carboxamide 4-methylbenzenesulfonate]	Class II	0.1451 mg min^−1 cm^−2	0.50 kV	non-hygroscopic		
Cc1ccc(S(=O)(=O)O)cc1.NC(=O)c1cccc2cn(-c3ccc([C@@H]4CCCNC4)cc3)nc12 [crystalline Form III, 2-{4-[(3S)-piperidin-3-yl]phenyl}-2H-indazole 7-carboxamide 4-methylbenzenesulfonate]					very hygroscopic	15.8%

From US11236066B2, “Crystalline forms of niraparib tosylate” (Apotex Inc., priority 2019, dated 2022)
